Results on 22 compounds are retold here after US20220073532A1, “INHIBITORS OF CGAS ACTIVITY AS THERAPEUTIC AGENTS” (BELLBROOK LABS, LLC, priority 2019, published 2022).

Read-outs that look alike come from different tables or passages of the source.

The test addresses cGAS (Homo sapiens, UniProt Q8N884). Description: cGAS enzymatic assay (FP/TR-FRET detection of cGAMP). In kind it is biochemical. Also on record: The cGAS assay was used to screen 100,000 compounds with full-length human cGAS; 6xHis; made in house. The conditions noted are these: cGAS (30 nM). The protocol: Some exemplary compounds of the disclosure were tested for inhibition of cGAS (30 nM). The results are provided in Table 1 where “A” indicates an IC50 of less than 100 nM, “B” indicates an IC50 of greater than 100 nM and less than 500 nM, “C” indicates an IC50 of greater than 500 nM and less than 1 μM, “D” indicates an IC50 of greater than 1 μM and less than 10 μM, and “E” indicates an IC50 of greater than 10 μM.
A homogenous cGAS enzymatic assay was developed with fluorescence polarization (FP) and time-resolved Forster resonance energy transfer (TR-FRET) readouts (FIG. 2A-2D). The cGAS assay was used to screen 100,000 compounds with full-length human cGAS (FIG. 2E), resulting in the identification of the novel chemotype of the disclosure, two of which are further developed in a structure-driven hit-to-lead study (Table 3, below). The assay performance was robust, as indicated by respective Z and Z′ values of 0.59 and 0.63 in the screen; compounds with polarization values greater than three SDs from the mean were considered hits; a scatterplot from 10 plates (3,200 compounds) is shown in FIG. 2D.
Biochemical and biophysical analysis: Potency and MOA studies, including Mn^2+ sensitivity, are performed using the cGAS enzymatic assay. Dose response experiments are used to determine IC50 values under basal conditions (5 mM MgCl2, 100 μM ATP/GTP), and with the addition of physiological levels of Mn (0.2 mM) using human and mouse cGAS. Ligand optimization is driven by potency with the human enzyme; potency with mouse cGAS informs selection of an appropriate disease model for efficacy studies. Competition with ATP and GTP is assessed by comparing basal IC50 values to those in the presence of saturating ATP or GTP, and subsequently confirmed by measuring velocity vs. substrate at varying ATP or GTP levels. Inhibitor residence times (1/koff) are used as a key parameter for prioritizing compounds and driving SAR, because a longer residence time often results from an allosteric mechanism, and can also correlate with improved cellular activity. The cGAS enzymatic assay is used with the jump dilution method to measure residence times (inhibitor dissociation rates), as described for kinases using the very similar ADP assay. Biophysical methods, including SPR and TSA, are used as orthologous methods for residence time measurements and kd estimates.
On the technique in general: TR-FRET usually uses a lanthanide donor and a delayed reading to cut background.

[1] abbreviates: with Mn^2+, read-out: Inhibition cGAS + Mn^2+.

cGAS, sequence (Q8N884 whole entry): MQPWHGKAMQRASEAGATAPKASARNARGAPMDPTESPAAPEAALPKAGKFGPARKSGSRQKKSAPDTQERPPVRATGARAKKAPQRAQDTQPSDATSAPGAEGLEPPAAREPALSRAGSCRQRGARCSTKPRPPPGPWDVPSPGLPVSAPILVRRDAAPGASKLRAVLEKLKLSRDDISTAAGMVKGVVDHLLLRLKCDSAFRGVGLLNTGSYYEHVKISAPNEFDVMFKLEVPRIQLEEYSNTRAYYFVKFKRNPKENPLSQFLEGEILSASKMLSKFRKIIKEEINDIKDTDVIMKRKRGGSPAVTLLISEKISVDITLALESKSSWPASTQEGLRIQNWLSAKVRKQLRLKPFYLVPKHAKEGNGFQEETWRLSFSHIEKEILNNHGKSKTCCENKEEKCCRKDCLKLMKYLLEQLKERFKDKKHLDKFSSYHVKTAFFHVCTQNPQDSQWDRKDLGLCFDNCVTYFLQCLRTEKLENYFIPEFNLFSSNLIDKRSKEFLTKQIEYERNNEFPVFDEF

`Cc1nc(N2C[C@@H](NC(=O)Cc3cccnc3)C[C@H]2C(=O)O)c2oc3ccccc3c2n1` [Compound 34, (2S,4S)-1-(2-methylbenzofuro[3,2-d]pyrimidin-4-yl)-4-(2-(pyridin-3-yl)acetamido)pyrrolidine-2-carboxylic acid]: the IC50 (read-out: Inhibition cGAS) was in the range of 500 to 1000 nM. Same read-out and setting: then `CNC(=O)C[C@H]1C[C@@H](C(=O)O)N(c2nc(C)nc3c2oc2ccccc23)C1` [Compound 35, (2S,4R)-4-(2-(methylamino)-2-oxoethyl)-1-(2-methylbenzofuro[3,2-d]pyrimidin-4-yl)pyrrolidine-2-carboxylic acid], with 500 to 1000 nM; and `Cc1nc(N2C[C@@H](NC(=O)Cc3ncc[nH]3)C[C@H]2C(=O)O)c2oc3ccccc3c2n1` [Compound 36, (2S,4S)-4-(2-(1H-imidazol-2-yl)acetamido)-1-(2-methylbenzofuro[3,2-d]pyrimidin-4-yl)pyrrolidine-2-carboxylic acid], with 500 to 1000 nM; and `Cc1nc(N2C[C@@H](NC3CCCNC3)C[C@H]2C(=O)O)c2oc3ccccc3c2n1` (stereo partly drawn) [Compound 37, (2S,4S)-1-(2-methylbenzofuro[3,2-d]pyrimidin-4-yl)-4-(piperidin-3-ylamino)pyrrolidine-2-carboxylic acid], with 500 to 1000 nM. `Cc1nc(N2C[C@@H](Nc3cccnc3)C[C@H]2C(=O)O)c2oc3ccccc3c2n1` [Compound 39, (2S,4S)-1-(2-methylbenzofuro[3,2-d]pyrimidin-4-yl)-4-(pyridin-3-ylamino)pyrrolidine-2-carboxylic acid]: the “Inhibition cGAS” value is reported as “B, D”. On to `Cc1nc(N2C[C@@H](NC(=O)Cc3c[nH]cn3)C[C@H]2C(=O)O)c2oc3ccccc3c2n1` [Compound 40, (2S,4S)-4-(2-(1H-imidazol-4-yl)acetamido)-1-(2-methylbenzofuro[3,2-d]pyrimidin-4-yl)pyrrolidine-2-carboxylic acid], for which, where the note is “read-out: Inhibition cGAS”, the IC50 was in the range of 500 to 1000 nM. On the same count and under the same terms, to `Cc1nc(N2C[C@@H](Nc3n[nH]cc3-c3ccccc3)C[C@H]2C(=O)O)c2oc3ccccc3c2n1` [Compound 41] belongs 500 to 1000 nM; to `Cc1cncc(CC(=O)N[C@H]2C[C@@H](C(=O)O)N(c3nc(C)nc4c3oc3ccccc34)C2)c1` [Compound 42, (2S,4S)-1-(2-methylbenzofuro[3,2-d]pyrimidin-4-yl)-4-(2-(5-methylpyridin-3-yl)acetamido)pyrrolidine-2-carboxylic acid], 500 to 1000 nM. Consider `Cc1nc(N2C[C@@H](NC(N)=O)C[C@H]2C(=O)O)c2oc3ccccc3c2n1` [Compound 43, (2S,4S)-1-(2-methylbenzofuro[3,2-d]pyrimidin-4-yl)-4-ureidopyrrolidine-2-carboxylic acid], for which the IC50 (read-out: Inhibition cGAS) was 1000 to 10000 nM.

Regarding `Cc1nc(N2C[C@@H](NC(=O)[C@H]3CN3)C[C@H]2C(=O)O)c2oc3ccccc3c2n1` [Compound 44, (2S,4S)-4-((R)-aziridine-2-carboxamido)-1-(2-methylbenzofuro[3,2-d]pyrimidin-4-yl)pyrrolidine-2-carboxylic acid], the IC50 (read-out: Inhibition cGAS) lay in the range of 1000 to 10000 nM. As to `Cc1nc(N2C[C@@H](CC(N)=O)C[C@H]2C(=O)O)c2oc3ccccc3c2n1` [Compound 45, (2S,4R)-4-(2-amino-2-oxoethyl)-1-(2-methylbenzofuro[3,2-d]pyrimidin-4-yl)pyrrolidine-2-carboxylic acid], the IC50 (read-out: Inhibition cGAS) lay within 500 to 1000 nM. On the same count and under the same terms, to `Cc1nc(N2C[C@@H](CC(=O)Nc3ccccn3)C[C@H]2C(=O)O)c2oc3ccccc3c2n1` [Compound 46, (2S,4R)-1-(2-methylbenzofuro[3,2-d]pyrimidin-4-yl)-4-(2-oxo-2-(pyridin-2-ylamino)ethyl)pyrrolidine-2-carboxylic acid] belongs 1000 to 10000 nM; to `Cc1nc(N2C[C@@H](NC(=O)c3ncc[nH]3)C[C@H]2C(=O)O)c2oc3ccccc3c2n1` [Compound 47, (2S,4S)-4-(1H-imidazole-2-carboxamido)-1-(2-methylbenzofuro[3,2-d]pyrimidin-4-yl)pyrrolidine-2-carboxylic acid], 1000 to 10000 nM; to `Cc1nc(N2C[C@@H](NC(=O)Cc3cccnc3N)C[C@H]2C(=O)O)c2oc3ccccc3c2n1` [Compound 49, (2S,4S)-4-(2-(2-aminopyridin-3-yl)acetamido)-1-(2-methylbenzofuro[3,2-d]pyrimidin-4-yl)pyrrolidine-2-carboxylic acid], 500 to 1000 nM.

Turning to `Cc1nc(N2C[C@@H](NC(=O)Cc3ccnc(C(N)=O)c3)C[C@H]2C(=O)O)c2oc3ccccc3c2n1` [Compound 50, (2S,4S)-4-(2-(2-carbamoylpyridin-4-yl)acetamido)-1-(2-methylbenzofuro[3,2-d]pyrimidin-4-yl)pyrrolidine-2-carboxylic acid], the IC50 (read-out: Inhibition cGAS) fell in the range of 500 to 1000 nM. Turning to `Cc1nc(N2C[C@@H](CC(=O)NC3CCCC3)C[C@H]2C(=O)O)c2oc3ccccc3c2n1` [Compound 51, (2S,4R)-4-(2-(cyclopentylamino)-2-oxoethyl)-1-(2-methylbenzofuro[3,2-d]pyrimidin-4-yl)pyrrolidine-2-carboxylic acid], the IC50 runs as follows: under setting [1], 1000 to 10000 nM; (read-out: Inhibition cGAS) 100 to 500 nM.

As for `Cc1nc(N2C[C@@H](CC(=O)Nc3ccccc3)C[C@H]2C(=O)O)c2oc3ccccc3c2n1` [Compound 52, (2S,4R)-1-(2-methylbenzofuro[3,2-d]pyrimidin-4-yl)-4-(2-oxo-2-(phenylamino)ethyl)pyrrolidine-2-carboxylic acid], the IC50 reads like this: under setting [1], 1000 to 10000 nM; (read-out: Inhibition cGAS) 100 to 500 nM. As to `Cc1nc(N2[C@H](C(=O)O)C[C@@H]3C[C@@H]32)c2oc3ccccc3c2n1` [Compound 54, (1S,3S,5S)-2-(2-methylbenzofuro[3,2-d]pyrimidin-4-yl)-2-azabicyclo[3.1.0]hexane-3-carboxylic acid], the IC50 lay within 1000 to 10000 nM under setting [1] and 1000 to 10000 nM (read-out: Inhibition cGAS).

Regarding `Cc1nc(N2C[C@@H](Nc3n[nH]c4ccccc34)C[C@H]2C(=O)O)c2oc3ccccc3c2n1` [Compound 55, (2S,4S)-4-((1H-indazol-3-yl)amino)-1-(2-methylbenzofuro[3,2-d]pyrimidin-4-yl)pyrrolidine-2-carboxylic acid], the IC50 by setting is: under setting [1], 1000 to 10000 nM; (read-out: Inhibition cGAS) 500 to 1000 nM. With `Cc1nc(N2C[C@@H](NC(=O)C(C)(C)c3cn[nH]c3)C[C@H]2C(=O)O)c2oc3cc(F)ccc3c2n1` [Compound 57, (2S,4S)-1-(7-fluoro-2-methylbenzofuro[3,2-d]pyrimidin-4-yl)-4-(2-methyl-2-(1H-pyrazol-4-yl)propanamido)pyrrolidine-2-carboxylic acid], the IC50 under setting [1] was in the range of 1000 to 10000 nM and the IC50 (read-out: Inhibition cGAS) is 100 to 500 nM. For `CC(C)(C(=O)N[C@H]1C[C@@H](C(=O)O)N(c2nc(C(F)(F)F)nc3c2oc2ccccc23)C1)c1cn[nH]c1` [Compound 58, (2S,4S)-4-(2-methyl-2-(1H-pyrazol-4-yl)propanamido)-1-(2-(trifluoromethyl)benzofuro[3,2-d]pyrimidin-4-yl)pyrrolidine-2-carboxylic acid], in that order: 1000 to 10000 nM and 500 to 1000 nM. For `Cc1nc(N2C[C@@H](Nc3n[nH]cc3C(C)C)C[C@H]2C(=O)O)c2oc3ccccc3c2n1` [Compound 59, (2S,4S)-4-((4-isopropyl-1H-pyrazol-3-yl)amino)-1-(2-methylbenzofuro[3,2-d]pyrimidin-4-yl)pyrrolidine-2-carboxylic acid], in that order: 1000 to 10000 nM and 100 to 500 nM.
